Source: patent US9969699B2, “Cancer cell growth inhibitor, anticancer agent, and method for screening same, as well as novel compound” (Microbial Chemistry Research Foundation, priority 2014, dated 2018)
Like-named read-outs stand apart in the source and are kept apart here.

Legend:
NIH3T3 cells = assay: 2D cell culture step (environment with adhesion scaffold), proliferation of NIH3T3 cells; type: cell-based; details: Mus musculus, read-out: IC50 2D cell culture step
Procedure: Note that, as a negative control, the NIH3T3 cells at 2×10^3 cells/100 were seeded to the same plate in a volume of 100 μL per well and cultured at 37° C. in the presence of 5% CO2 for 3 days without the addition of the test substance.
Note that, Dulbecco's Modified Eagle Medium supplemented with 5% FBS was used for the culture.
A cell proliferation inhibition rate in the 2D cell culture step was calculated according to (Expression 2) below. Cell proliferation inhibition rate(%)=(1−D/E)×100 (Expression 2)
In the (Expression 2), D denotes the number of viable NIH3T3 cells when the test substance was added, and E denotes the number of viable NIH3T3 cells when the test substance was not added.

NIH3T3/EGFR vIII cells = assay: 3D cell culture step (environment without adhesion scaffold), proliferation of NIH3T3/EGFR vIII cells; type: cell-based, mouse; details: for IC50: Mus musculus, 72 h, NIH3T3/EGFR vIII cells, Ultra Low Attachment plate, 3 days, […]-GLO
[1] = 72 h, NIH3T3 cells, TC-treated plate, 3 days, […]-GLO

`C#Cc1cccc(Nc2ncnc3cc(OCCOC)c(OCCOC)cc23)c1` [Erlotinib, reference compound] showed an IC50 (NIH3T3 cells; NIH3T3, 72 h) of 50 µM.
In the case of `Cc1ccc2nc(-c3cc(Br)ccc3N)c(=O)[nH]c2c1` [Structural Formula (2), 3-(2-amino-5-bromophenyl)-7-methylhydroquinoxalin-2-one], the IC50 (NIH3T3 cells; [1]) is reported as > 10 µM and the IC50 (NIH3T3/EGFR vIII cells) is reported as 0.1 µM.
For `CC(=O)Nc1ccc(Br)cc1-c1nc2ccccc2[nH]c1=O` [Structural Formula (3), N-[4-bromo-2-(3-oxo(4-hydroquinoxalin-2-yl))phenyl]acetamide], the IC50 (NIH3T3 cells; [1]) was > 10 µM and the IC50 (NIH3T3/EGFR vIII cells) was 0.5 µM.
With `Cc1ccc(N)c(-c2nc3ccccc3[nH]c2=O)c1` [Structural Formula (4), 3-(2-amino-5-methylphenyl)hydroquinoxalin-2-one] the IC50 (NIH3T3 cells; [1]) was > 10 µM and the IC50 (NIH3T3/EGFR vIII cells) was 0.5 µM.
In the case of `O=C(O)CCCC(=O)Nc1ccc(Br)cc1-c1nc2ccccc2[nH]c1=O` [Structural Formula (5), 4-{N-[4-bromo-2-(3-oxo(4-hydroquinoxalin-2-yl))phenyl]carbamoyl}butanoic acid], the IC50 (NIH3T3 cells; [1]) is reported as > 10 µM and the IC50 (NIH3T3/EGFR vIII cells) is reported as 0.4 µM.
In the case of `Nc1ccc(Cl)cc1-c1nc2ccccc2[nH]c1=O` [Structural Formula (6), 3-(2-amino-5-chlorophenyl)hydroquinoxalin-2-one], the IC50 (NIH3T3 cells; [1]) is reported as > 10 µM, the “cell proliferation inhibiting activity compared with AG1478, Gefitinib and Erlotinib” value (NIH3T3/EGFR vIII cells; 3D cell culture step) is reported as “more significant cell proliferation inhibiting activity” and the IC50 (NIH3T3/EGFR vIII cells) is reported as 0.014 µM.
For `Nc1ccc(F)cc1-c1nc2ccccc2[nH]c1=O` [Structural Formula (7), 3-(2-Amino-5-fluorophenyl)-2(1H)-quinoxalinone], the IC50 (NIH3T3 cells; [1]) was > 10 µM and the IC50 (NIH3T3/EGFR vIII cells) was 0.34 µM.
In the case of `Nc1ccccc1-c1nc2ccccc2[nH]c1=O` [Structural Formula (9), 3-(2-aminophenyl)-2(1H)-quinoxalinone], the IC50 (NIH3T3 cells; [1]) is reported as > 10 µM and the IC50 (NIH3T3/EGFR vIII cells) is reported as > 10 µM.
In the case of `CNc1ccc(Br)cc1-c1nc2ccccc2[nH]c1=O` [Structural Formula (10), 3-[5-bromo-2-(methylamino)phenyl]-2(1H)-quinoxalinone], the IC50 (NIH3T3 cells; [1]) is reported as > 10 µM and the IC50 (NIH3T3/EGFR vIII cells) is reported as > 10 µM.
`CCNc1ccccc1-c1nc2ccccc2[nH]c1=O` [Structural Formula (11), 3-[2-(ethylamino)phenyl]-2(1H)-quinoxalinone] was tested, and the IC50 (NIH3T3 cells; [1]) was > 10 µM and the IC50 (NIH3T3/EGFR vIII cells) was > 10 µM.
`O=c1[nH]c2ccccc2nc1-c1ccccc1NCc1ccc(F)cc1` [Structural Formula (12), 3-{2-[(4-fluorobenzyl)amino]phenyl}-2(1H)-quinoxalinone] was tested, and the IC50 (NIH3T3 cells; [1]) was > 10 µM and the IC50 (NIH3T3/EGFR vIII cells) was > 10 µM.
In the case of `Cn1c(=O)c(-c2ccccc2N)nc2ccccc21` [Structural Formula (13), 3-(2-aminophenyl)-1-methyl-2(1H)-quinoxalinone], the IC50 (NIH3T3 cells; [1]) is reported as > 10 µM and the IC50 (NIH3T3/EGFR vIII cells) is reported as > 10 µM.
With `CCOC(=O)Cn1c(=O)c(-c2cc(Br)ccc2N)nc2ccccc21` [Structural Formula (14), ethyl 2-[3-(2-amino-5-bromophenyl)-2-oxohydroquinoxalinyl]acetate] the IC50 (NIH3T3 cells; [1]) was > 10 µM and the IC50 (NIH3T3/EGFR vIII cells) was 10 µM.
With `O=C(Nc1ccc(Br)cc1-c1nc2ccccc2[nH]c1=O)c1ccccc1` [Structural Formula (15)] the IC50 (NIH3T3 cells; [1]) was > 10 µM and the IC50 (NIH3T3/EGFR vIII cells) was > 10 µM.
